How the values were obtained:
Assay type in all cases: functional, Homo sapiens
TERT-RPE1 = assay: (§1) Here: values are normalized to the negative (DMSO; defined as 0% autophagy induction) and positive (250nM Torin1; mTOR inhibitor; defined as maximal inducer of autophagy = 100%) control compounds and represented as % of autophagy induction. […] The impact of autophagy induction on cells is complex and depends on the affected target. As such, the magnitude of a phenotype may not be equally mirrored in the %-value of autophagy induction and vice versa. The dynamics of the induction may indicate the mode of activation: e.g. activation via phosphorylation or a signaling cascade may occur fast, while activation via transcription factors may take considerably longer. […] Of note, treatment concentrations may be sub-optimal for specific compounds, leading to false negative annotations.; details: Culturing Media DMEM/F12 (1:1), 1 % Penicillin/Streptomycin, 10% Fetal bovin serum Add-On: No, Screening Media Control DMEM/F12 (1:1), Screening Media Samples DMEM/F12 (1:1)
U2OS [1] = assay: as §1; details: Culturing Media DMEM, 1 % Penicillin/Streptomycin, 10% Fetal bovin serum Add-On: No, Screening Media Control DMEM, Screening Media Samples DMEM
U2OS [2] = assay: as §1; details: Culturing Media DMEM, 1 % Penicillin/Streptomycin, 10% Fetal bovin serum Add-On: No, Screening Media Control DMEM, Screening Media Samples DMEM; remark: listed apart in the source
[3] = Compound Concentration 0.5 uM, Timepoint 12 hours
[4] = Compound Concentration 0.5 uM, Timepoint 24 hours
[5] = Compound Concentration 0.5 uM, Timepoint 36 hours
[6] = Compound Concentration 0.5 uM, Timepoint 60 hours
[7] = Compound Concentration 2 uM, Timepoint 12 hours
[8] = Compound Concentration 2 uM, Timepoint 24 hours
[9] = Compound Concentration 2 uM, Timepoint 36 hours
[10] = Compound Concentration 2 uM, Timepoint 60 hours
[11] = Compound Concentration 10 uM, Timepoint 12 hours
[12] = Compound Concentration 10 uM, Timepoint 24 hours
[13] = Compound Concentration 10 uM, Timepoint 36 hours
[14] = Compound Concentration 10 uM, Timepoint 60 hours

SMILES	autophagy induction (TERT-RPE1; [3])	autophagy induction (TERT-RPE1; [4])	autophagy induction (TERT-RPE1; [5])	autophagy induction (TERT-RPE1; [6])	autophagy induction (TERT-RPE1; [7])	autophagy induction (TERT-RPE1; [8])	autophagy induction (TERT-RPE1; [9])	autophagy induction (TERT-RPE1; [10])	autophagy induction (TERT-RPE1; [11])	autophagy induction (TERT-RPE1; [12])	autophagy induction (TERT-RPE1; [13])	autophagy induction (TERT-RPE1; [14])	autophagy induction (U2OS [1]; [3])	autophagy induction (U2OS [1]; [4])	autophagy induction (U2OS [1]; [5])	autophagy induction (U2OS [1]; [6])	autophagy induction (U2OS [1]; [7])	autophagy induction (U2OS [1]; [8])	autophagy induction (U2OS [1]; [9])	autophagy induction (U2OS [1]; [10])	further results
N#Cc1c[nH]c2c(C(=O)N3CCN(CCc4ccc(F)cc4)CC3)cccc12 [PRUVANSERIN]	-0.9197%	-7.874%	-10.0141%	-14.8375%	-6.1985%	-7.924%	-9.7251%	-15.807%	-0.3174%	-4.163%	-3.571%	-3.5258%	-2.928%	-3.235%	-1.344%	-1.7078%	-0.5957%	-2.183%	-3.588%	-2.524%	autophagy induction (U2OS [1]; [11]): 4.878%; autophagy induction (U2OS [1]; [12]): -0.06233%; autophagy induction (U2OS [1]; [13]): -0.9102%; autophagy induction (U2OS [1]; [14]): -2.945%; autophagy induction (U2OS [2]; [3]): -6.178%; autophagy induction (U2OS [2]; [4]): -8.725%; autophagy induction (U2OS [2]; [5]): -11.774%; autophagy induction (U2OS [2]; [6]): -11.1897%; autophagy induction (U2OS [2]; [7]): -0.7991%; autophagy induction (U2OS [2]; [8]): -1.585%; autophagy induction (U2OS [2]; [9]): -5.754%; autophagy induction (U2OS [2]; [10]): -9.463%; autophagy induction (U2OS [2]; [11]): -2.951%; autophagy induction (U2OS [2]; [12]): 1.579%; autophagy induction (U2OS [2]; [13]): -6.9473%; autophagy induction (U2OS [2]; [14]): -6.12%
Cc1csc(NC(=O)c2cc(F)cc(Oc3cncnc3)c2)n1	-6.573%	-11.4508%	-15.1452%	-20.0235%	-3.733%	-9.437%	-10.535%	-13.1148%	-2.429%	-5.833%	-5.079%	-4.061%	-6.672%	-2.592%	-1.939%	-1.765%	-5.1627%	-3.72%	-2.553%	-1.843%	autophagy induction (U2OS [1]; [11]): -2.289%; autophagy induction (U2OS [1]; [12]): -0.7242%; autophagy induction (U2OS [1]; [13]): -0.5379%; autophagy induction (U2OS [1]; [14]): -1.609%; autophagy induction (U2OS [2]; [3]): -16.3524%; autophagy induction (U2OS [2]; [4]): -14.7733%; autophagy induction (U2OS [2]; [5]): -11.9866%; autophagy induction (U2OS [2]; [6]): -8.75%; autophagy induction (U2OS [2]; [7]): -9.821%; autophagy induction (U2OS [2]; [8]): -11.197%; autophagy induction (U2OS [2]; [9]): -11.4826%; autophagy induction (U2OS [2]; [10]): -11.3338%; autophagy induction (U2OS [2]; [11]): -1.626%; autophagy induction (U2OS [2]; [12]): -3.326%; autophagy induction (U2OS [2]; [13]): -2.706%; autophagy induction (U2OS [2]; [14]): -7.422%
